The results in this text go back to publication PMC11728142, “A Tachyplesin Antimicrobial Peptide from Theraphosidae Spiders with Potent Antifungal Activity Against Cryptococcus neoformans” (Microorganisms, 2024).

Positions of bridges follow the written chain, without caps; N, C: chain ends. Residues, ends and D or L forms follow the SMILES beside them.

Data set [1] in a line: In vivo acute toxicity test. As to conditions: mouse, in vivo, ip; mice, single intraperitoneal dose, observed up to 72 h. The protocol: (§1) The peptide was administered in decreasing dosages to the different groups of mice. The concentration was lowered after three repeats if death was immediate, and 6 mice were injected if no death occurred. Following injection, mice were examined visually for any indications of toxicity, and the times at which mice died were recorded at 12/24/48/60 and 72 h. The following signs were used to assess toxicity: hunched back, ruffled fur, poor motility, and total immobility resulting in death.

A further data set deals with C57BL/6J male mice. Briefly: In vivo acute toxicity test. As for the experimental part:
as §1

Data set [2] concerns Cryptococcus neoformans_BNCC225501. Briefly: microbe, parasite or virus in culture. The conditions noted are these: oxidized QS18 compared with fluconazole. As for the experimental part:
To achieve a final cell concentration of 2 × 10^6 CFU/mL, mid-log phase cultures were diluted with a Yeast and Mold (YM) broth and then put to 96-well plates with two-fold serially diluted peptides (from 0.1 to 89.8 µM) in a 1:1 ratio.

Another data set has as its system C. neoformans. Description: Mice systemic infection model, fungal burden. The format is in vivo, C57BL/6J female mice. As to conditions: immunocompromised mice, 8 × 10^6 CFU/mouse i.p., QS18 1, 2, 4 mg/kg i.p. 12 h after infection, read 12 h post-treatment, n = 4. The protocol:
Mice systemic infection and the treatment model were performed to assess the dissemination of fungi to target organs as described by with little modifications. C57BL/6J female mice 20 ± 2 g were immunocompromised through the intraperitoneal injection of 150 mg/kg cyclophosphamide for four days prior to infection. C. neoformans was then cultured in YPDA broth media to mid-log phase. […] Fungal pellets were resuspended in the same buffer, and the optical density (OD) value was adjusted to 4 × 10^7 CFU/mL. A volume of 200 µL of the fungal solution was i.p. injected into immunocompromised mice (n = 4), a total of 8 × 10^6 colony-forming units (CFUs) injected per mouse. Twelve hours post-intraperitoneal inoculation of the fungi, treatment was administered. […] Twelve hours post-treatment, the mice were sacrificed, and blood was collected through retro-orbital bleeding. Organs (lung, liver, kidney, and spleen) were also harvested and divided into two parts. One portion was weighed and placed into a grinding tube with 1 mL of normal saline and then homogenized in a tissue grinder to assess the fungal burden, while fixation of the other portion was performed for the histopathology examination. Following a 5-fold serial dilution in normal saline, 100 µL of the homogenates were seeded on YPDA plates and incubated at 37 °C for 48 h before counting colonies.

Data set [3] concerns C. neoformans BNCC225501 biofilms. Briefly: Two-photon laser scanning microscopy of biofilms, FDA/PI. The format is cell-based, Cryptococcus neoformans. The conditions noted are these: 0.5× to 8 × the MIC, 24 h at 37 °C. As for the experimental part: Fluorescein diacetate (FDA) and Propidium iodide (PI) dyes were utilized to stain live and dead cells, respectively. The fungi were cultured in YPDA broth media at 37 °C to the mid-logarithmic phase. Fungal cells were centrifuged at 3500 rpm for 5 min and then washed thrice with normal saline (0.9% sodium chloride). The fungal suspension was diluted to 1 × 10^9 CFU/mL in YPDA broth media, and, then, 500 µL was added to wells in a 24-well plate. Incubation was performed for 24 h at 37 °C; then, wells were washed thrice with PBS. […] Normal saline was added to the negative control group. […] After incubation, the non-adherent cells were washed with PBS, 250 µL (10 µg/mL) of FDA dye (Solarbio, Beijing, China) was added to each well and left in the dark for 20 min, and, then, 250 µL (5 µg/mL) of PI dye (Solarbio, Beijing, China) was added and co-stained in the dark for 10 min. Microscopy observation was performed utilizing the TPLSM (A1MP+, Nikon, Tokyo, Japan) at 555 nm and 488 nm excitations for PI and FDA, respectively.

One may read the LD50 as the dose at which mortality reaches 50%. As for `CC(C)[C@@H]1NC(=O)[C@H](CCCCN)NC(=O)[C@H](Cc2ccccc2)NC(=O)[C@@H](NC(=O)[C@@H](N)CCC(N)=O)CSSC[C@@H](C(=O)N[C@@H](CO)C(=O)N[C@@H](CCCNC(=N)N)C(=O)N[C@@H](CO)C(N)=O)NC(=O)[C@H](CCCCN)NC(=O)[C@H]([C@@H](C)O)NC(=O)[C@H](Cc2ccccc2)NC(=O)[C@@H]2CSSC[C@H](NC1=O)C(=O)N[C@@H](Cc1ccccc1)C(=O)N[C@@H](CCCNC(=N)N)C(=O)N[C@@H](CCCCN)C(=O)N[C@@H](CCCNC(=N)N)C(=O)N2` [QS18] (H-QCFKVCFRKRCFTKCSRS-NH2; disulfide 2-15, 6-11; N-terminus and C-terminus assumed), the LD50 at 72 h in data set [1] worked out at 30 mg/kg. The “LD50 i.p. compared to intravenous administration” value in the data set on C57BL/6J male mice is “two-fold”. Further, the acute toxicity observation entry in the data set on C57BL/6J male mice (intravenous, 10 mg/kg, over 72 hours) was “no signs of toxicity or death”. In addition, the intravenous toxicity result in the data set with C57BL/6J male mice (intravenous, 20 mg/kg and 40 mg/kg) was “lethal effect”. For the same compound, in data set [2], the “MIC times lower than that of fluconazole” value was “approximately fourteen”. Further, in the data set with C. neoformans, the “fungal burden (CFU) in lung, liver, kidney, spleen and blood” value is listed as “significant suppression of fungi dissemination to target organs”. The “viability of biofilm cells, PI/FDA fluorescence” value in data set [3] is recorded as “decreased dose-dependently”.
